Columns and labels:
MV4-11 [1] = assay: Induction of apoptosis in human MV4-11 cells assessed as viable cells at 1 uM incubated for 18 hrs by annexin V FITC and PI based flow cytometry (reference value: 53.01 to 53.07 %); assay type: functional; settings: Homo sapiens, MV4-11, 18 h; read-out: Activity
[2] = Cmax in NSG mouse; assay type: ADME; settings: in vivo
[3] = biological target: T1, Protein deacetylase HDAC6 (Homo sapiens, UniProt Q9UBN7); assay: (§1) Inhibition of HDAC6 in human HeLa cells incubated for 15 mins by ELISA; assay type: cell-based
T1 sequence (Q9UBN7 whole entry): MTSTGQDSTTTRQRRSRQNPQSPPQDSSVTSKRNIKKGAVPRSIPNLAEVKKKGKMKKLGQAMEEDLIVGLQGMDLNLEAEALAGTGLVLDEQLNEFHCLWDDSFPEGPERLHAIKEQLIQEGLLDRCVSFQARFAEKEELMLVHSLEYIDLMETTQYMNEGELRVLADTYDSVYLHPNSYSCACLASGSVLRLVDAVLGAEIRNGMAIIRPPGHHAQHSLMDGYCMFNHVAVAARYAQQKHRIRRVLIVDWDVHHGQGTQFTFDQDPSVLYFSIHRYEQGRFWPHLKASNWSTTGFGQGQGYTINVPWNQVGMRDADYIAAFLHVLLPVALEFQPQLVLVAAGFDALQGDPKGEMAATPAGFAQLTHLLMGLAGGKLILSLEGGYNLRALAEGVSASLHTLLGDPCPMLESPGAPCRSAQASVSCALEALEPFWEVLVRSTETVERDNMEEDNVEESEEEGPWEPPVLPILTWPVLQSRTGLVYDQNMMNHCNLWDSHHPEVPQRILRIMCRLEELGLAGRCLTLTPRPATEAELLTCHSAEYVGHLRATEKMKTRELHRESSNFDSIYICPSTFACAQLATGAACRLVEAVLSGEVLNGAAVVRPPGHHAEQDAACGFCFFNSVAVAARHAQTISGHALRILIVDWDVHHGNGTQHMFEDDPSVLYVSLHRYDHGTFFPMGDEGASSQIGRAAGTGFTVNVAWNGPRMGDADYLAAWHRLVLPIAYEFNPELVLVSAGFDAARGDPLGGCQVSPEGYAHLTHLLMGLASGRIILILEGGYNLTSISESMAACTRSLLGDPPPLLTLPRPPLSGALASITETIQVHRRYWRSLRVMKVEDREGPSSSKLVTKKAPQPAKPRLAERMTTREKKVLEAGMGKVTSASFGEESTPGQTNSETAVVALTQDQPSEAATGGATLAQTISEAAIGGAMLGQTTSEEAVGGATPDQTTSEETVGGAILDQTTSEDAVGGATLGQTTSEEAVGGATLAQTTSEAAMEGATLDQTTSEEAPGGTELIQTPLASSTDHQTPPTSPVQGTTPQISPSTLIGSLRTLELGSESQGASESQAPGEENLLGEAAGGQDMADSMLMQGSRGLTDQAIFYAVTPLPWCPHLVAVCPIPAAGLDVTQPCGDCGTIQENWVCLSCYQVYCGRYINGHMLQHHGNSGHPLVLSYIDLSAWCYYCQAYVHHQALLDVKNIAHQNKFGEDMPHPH

[4] = biological target: T2, Protein deacetylase HDAC6 (Homo sapiens) (UniProt Q9UBN7); assay: as §1; assay type: cell-based
T2 sequence (whole entry): T1 sequence (Q9UBN7 whole entry)

MV4-11 [5] = assay: Induction of apoptosis in human MV4-11 cells assessed as late apoptotic cells at 4 uM incubated for 18 hrs by annexin V FITC and PI based flow cytometry (reference value: 9.2 to 9.63 %); assay type: functional
MV4-11 [6] = assay: Induction of apoptosis in human MV4-11 cells assessed as early apoptotic cells at 2 uM incubated for 18 hrs by annexin V FITC and PI based flow cytometry (reference value: 19.46 to 22.17 %); assay type: functional
Histone deacetylase 8 = biological target: T3, Histone deacetylase 8 (Homo sapiens, UniProt Q9BY41); assay: Inhibition of recombinant full length human HDAC8 expressed in baculovirus infected Sf9 cells using FAM-RHKK-TFAc as substrate incubated for 3 hrs by electrophoretic mobility shift assay
T3 sequence (Q9BY41 whole entry): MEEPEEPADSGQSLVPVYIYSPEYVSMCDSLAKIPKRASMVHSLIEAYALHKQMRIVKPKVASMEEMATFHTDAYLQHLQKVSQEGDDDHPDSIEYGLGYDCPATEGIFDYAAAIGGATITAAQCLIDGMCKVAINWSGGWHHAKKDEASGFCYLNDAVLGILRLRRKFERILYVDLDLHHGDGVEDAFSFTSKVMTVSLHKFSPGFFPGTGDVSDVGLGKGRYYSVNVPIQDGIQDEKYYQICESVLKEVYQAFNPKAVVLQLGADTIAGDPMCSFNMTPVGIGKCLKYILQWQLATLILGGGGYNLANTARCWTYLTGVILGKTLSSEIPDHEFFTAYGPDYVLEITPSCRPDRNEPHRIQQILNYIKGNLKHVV

MV4-11 [7] = assay: Induction of apoptosis in human MV4-11 cells assessed as viable cells at 4 uM incubated for 18 hrs by annexin V FITC and PI based flow cytometry (reference value: 53.01 to 53.07 %); assay type: functional; settings: Homo sapiens, MV4-11, 18 h; read-out: Activity
MV4-11 [8] = assay: Induction of apoptosis in human MV4-11 cells assessed as early apoptotic cells at 0.25 uM incubated for 18 hrs by annexin V FITC and PI based flow cytometry (reference value: 19.46 to 22.17 %); assay type: functional

Question: What does the source list for `CC(C)(C)c1ccc(C(=O)Nc2ccc(C(=O)NO)cc2)cc1`?
Answer: viability at 1 µM (MV4-11 [1]): 40.9%; Cmax [2]: 10.7 µM; IC50 [3]: 0.58 µM; inhibition [4]: Dose-dependent effect; Activity (MV4-11 [5]): 38.48%; Activity (MV4-11 [6]): 27.83%; IC50 (Histone deacetylase 8): 0.245 µM; viability at 4 µM (MV4-11 [7]): 16.3%; Activity (MV4-11 [8]): 17.82%

From ChEMBL document CHEMBL4373747 (ACS Med Chem Lett, 2020)
